Where “and” joins values, the source holds several entries; their conditions need not be identical. Equal values may be shown once.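 In this assay, cells in 96-well plates receive the compound at five concentrations for 48 hours. Endpoints are linearly interpolated between the surrounding concentrations. GI50 is the concentration that inhibits growth by half.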 Calls of active or inactive are those of the source. Cut-off read from the data, not from the text of the source: active = GI50 up to about 1.1 µM and inactive = higher.
Key:
Assay in all cases: NCI anticancer screen, dose series, 48 h
[1] = tested on: BT-549
[2] = tested on: DLD-1
[3] = tested on: DMS-114
[4] = tested on: KM-20L2
[5] = tested on: LXFL 529
[6] = tested on: SNB-78
[7] = tested on: XF498
[8] = tested on: HOP-18

With `OCCSCC(O)Cn1cnc2c(O)nc(Nc3ccccc3)nc21` (stereo not given) the GI50 [1] was > 100 µM (inactive).

In the case of `CCNc1cc2c(cc1O)CC[C@@H]1[C@@H]2CC[C@]2(C)[C@@H](O)CC[C@@H]12`, the GI50 [1] is reported as 15.6 µM (inactive).

In the case of `Cc1cc(Oc2cnc(=O)[nH]c2)cs1`, the GI50 [1] is reported as > 100 µM (inactive).

For `FC(F)(F)c1nc2cc(SSc3cc4nc(C(F)(F)F)[nH]c4cc3Cl)c(Cl)cc2[nH]1`, the GI50 [1] was > 100 µM (inactive).

`O=C1OC(c2ccccc2)=N/C1=C/NC(Cc1c[nH]cn1)C(=O)O` (stereo not given) was tested, and the GI50 [2] was > 100 µM (inactive), the GI50 [3] was > 100 µM (inactive) and the GI50 [4] was > 100 µM (inactive). The GI50 [5] was > 100 µM (inactive), the GI50 [6] was > 100 µM (inactive) and the GI50 [7] was > 100 µM (inactive).

With `CNC(=S)N/N=C(\C)c1cc(OC)c(OC)cc1O` the GI50 [1] was > 100 µM (inactive).

In the case of `O=C1CCC2(c3ccc(F)cc3)Nc3ncccc3N12` (stereo not given), the GI50 [2] is reported as > 100 µM (inactive), the GI50 [4] is reported as > 100 µM (inactive) and the GI50 [5] is reported as > 100 µM (inactive). For the same compound, the GI50 [6] was > 100 µM (inactive) and the GI50 [7] was > 100 µM (inactive).

With `COc1ccc(-c2nc(SCC(=O)N/N=C/c3ccc([N+](=O)[O-])cc3)[nH]c2-c2ccc(OC)cc2)cc1` the GI50 [1] was 19.1 µM (inactive).

For `C=CCN1CN(C2CCCCC2)CSC1=S`, the GI50 [1] was 7.69 µM (inactive).

For `Cc1cc(=O)n(-c2cc3cccccc-3n2)[nH]1`, the GI50 [2] was 5.61 µM (inactive), the GI50 [3] was 2.38 µM (inactive) and the GI50 [8] was 3.95 µM (inactive). For the same compound, the GI50 [4] was 38.4 µM (inactive), the GI50 [5] was 3.79 µM (inactive) and the GI50 [7] was 4.03 µM (inactive).

In the case of `CCOC(=O)CCSS(=O)(=O)c1ccccc1`, the GI50 [1] is reported as > 100 µM (inactive).

For `CCOC(=O)c1c(CN2CCOCC2)n(Cc2ccccc2)c2c1cc(O)c1nc(C)c(C)nc12`, the GI50 [1] was 11.5 µM (inactive).

With `N#Cc1cc(C#N)c(N)nc1N` the GI50 [1] was > 100 µM (inactive).

For `O=C(CC1Sc2ccccc2NC1=O)Nc1cccc(Cl)c1` (stereo not given), the GI50 [2] was 48.4 µM (inactive), the GI50 [3] was 34.2 µM (inactive) and the GI50 [4] was 38.2 µM (inactive). The GI50 [5] was 42.1 µM (inactive), the GI50 [6] was 47.9 µM (inactive) and the GI50 [7] was 28 µM (inactive).

`CCOC(=O)C(SCCO)C(C(=O)OCC)n1ccc(N)nc1=O` (stereo not given) was tested, and the GI50 [1] was > 100 µM (inactive).

In the case of `CC(=O)Nc1ccc2cc(C)c(O)nc2n1`, the GI50 [1] is reported as > 100 µM (inactive).

`CN(C)C(=S)C(Cl)(c1ccccc1)c1ccccc1` was tested, and the GI50 [1] was > 100 µM (inactive).

`O=C(O)C1CCCN1Cc1ccc2c(c1)OCO2` (stereo not given) was tested, and the GI50 [1] was > 100 µM (inactive).

`CC(C)CCCC(C)[C@H]1CCC2[C@@H]3CCC4Cc5nc6c(nc5C[C@]4(C)C3CC[C@@]21C)CC1CC[C@@H]2C(CC[C@@]3(C)C2CC[C@@H]3C(C)CCCC(C)C)[C@@]1(C)C6` (stereo not given in full) was tested, and the GI50 [1] was > 100 µM (inactive).

With `CC(=O)O[C@H]1CC2C(C3CC[C@H](C(C)CCC(N)=O)[C@]31C)[C@H](OC(C)=O)C[C@@H]1CC3(CC[C@]21C)OOC1(CCC(C)CC1)OO3` (stereo not given in full) the GI50 [1] was 2.11 µM (inactive) and 1.72 µM (inactive).

`CCCOC(=O)C1C2CCC(O2)C1C(=O)O` (stereo not given) was tested, and the GI50 [1] was > 100 µM (inactive).

`CCOC(=O)NC(=O)c1cn(CCOC(=O)NCCCCCCNC(=O)OCCn2cc(C(=O)NC(=O)OCC)c(=O)[nH]c2=O)c(=O)[nH]c1=O` was tested, and the GI50 [2] was > 100 µM (inactive), the GI50 [3] was > 100 µM (inactive) and the GI50 [8] was > 100 µM (inactive). For the same compound, the GI50 [4] was > 100 µM (inactive), the GI50 [5] was > 100 µM (inactive) and the GI50 [6] was > 100 µM (inactive).

For `C=C1CC2(CCCC3(CC(=C)C(=O)O3)C2(C)C)OC1=O` (stereo not given), the GI50 [1] was 3.75 µM (inactive).

With `CC12N=NNC1C(=O)NC2=O` (stereo not given) the GI50 [2] was > 100 µM (inactive), the GI50 [3] was > 100 µM (inactive) and the GI50 [4] was > 100 µM (inactive). The GI50 [5] was > 100 µM (inactive) and the GI50 [6] was > 100 µM (inactive).

`CCC1CCN=C(Cn2cc(C)c(=O)[nH]c2=O)N1` (stereo not given) was tested, and the GI50 [1] was > 100 µM (inactive).

`Nc1nc(Br)nc2ncn(C3CC(O)C(CO)O3)c12` (stereo not given) was tested, and the GI50 [1] was 46 µM (inactive).

For `C[C@@]12C[C@@H](c3ccccc3O1)N1CCCCSC1=N2`, the GI50 [1] was > 100 µM (inactive).

With `CCCCCCC(=O)C/C(=N/NC(N)=S)C(=O)NC1C2CC3CC(C2)CC1C3` (stereo not given) the GI50 [2] was > 100 µM (inactive), the GI50 [4] was > 100 µM (inactive) and the GI50 [5] was > 100 µM (inactive). The GI50 [6] was > 100 µM (inactive).

With `COc1cc(/C=C2/SC(c3ccccc3)N(c3ccccc3)C2=O)cc(OC)c1OC` (stereo not given) the GI50 [1] was 29 µM (inactive).

In the case of `Cc1cc2c(C)nn(Cc3ccc(Cl)cc3Cl)c2c(C#N)c1C`, the GI50 [2] is reported as > 100 µM (inactive), the GI50 [8] is reported as > 100 µM (inactive) and the GI50 [4] is reported as > 100 µM (inactive). The GI50 [5] was 82.4 µM (inactive), the GI50 [6] was > 100 µM (inactive) and the GI50 [7] was 29.1 µM (inactive).

With `CCCCc1ccc(-n2sc3ncc([N+](=O)[O-])cc3c2=O)cc1` the GI50 [1] was 17.2 µM (inactive).

`CC1(C)COC(c2c(-c3ccccc3)noc2C[S+]([O-])c2ccccc2)=N1` (stereo not given) was tested, and the GI50 [2] was > 100 µM (inactive), the GI50 [3] was 21.9 µM (inactive) and the GI50 [8] was 24.9 µM (inactive). For the same compound, the GI50 [4] was 46.3 µM (inactive), the GI50 [5] was 30.2 µM (inactive) and the GI50 [6] was 7.48 µM (inactive).

With `Oc1ccc(-c2nc(-c3ccc4ccccc4n3)c(-c3ccc(F)cc3)[nH]2)cc1` the GI50 [1] was 17.7 µM (inactive).

For `Nc1nc2c(ncn2Cc2ccc(CO)cc2)c(=O)[nH]1`, the GI50 [1] was > 100 µM (inactive).

For `COc1ccc2c(C)c(Oc3c(Cl)c(Cl)c(O)c(C#N)c3C#N)oc2c1`, the GI50 [1] was > 100 µM (inactive).

For `Cc1cn(CC2=NCCN2)c(=O)[nH]c1=O`, the GI50 [1] was > 100 µM (inactive).

For `COC12C=C(C)C(CC1)CC2C(=O)O` (stereo not given), the GI50 [2] was > 100 µM (inactive), the GI50 [8] was > 100 µM (inactive) and the GI50 [4] was > 100 µM (inactive). For the same compound, the GI50 [5] was > 100 µM (inactive), the GI50 [6] was > 100 µM (inactive) and the GI50 [7] was > 100 µM (inactive).

In the case of `C[C@@]1(CO)[C@H](O)CC[C@@]2(C)[C@H]1CC[C@H]1C[C@@H]3C[C@@]12CC[C@@]3(O)COC(=O)CN`, the GI50 [1] is reported as 42.3 µM (inactive), the GI50 [8] is reported as > 76 µM (inactive) and the GI50 [5] is reported as > 100 µM (inactive).

`N#C/N=C1/c2ccccc2/C(=N/C#N)c2cc(CO)ccc21` was tested, and the GI50 [1] was 18 µM (inactive).

For `CCN(CC)C(=O)N1CN(c2ccccc2)C2(CCN(CCCC3(c4ccc(F)cc4)OCCO3)CC2)C1=O`, the GI50 [1] was 12.5 µM (inactive).

`CCOC(=O)C1=C(C)N(Cc2ccc(Cl)cc2Cl)C2(O)C=CC(=O)C3C(=O)N(c4ccccc4)C(=O)C132` (stereo not given) was tested, and the GI50 [1] was 1.3 µM (inactive).

For `N#Cc1nc(-c2ccco2)oc1N`, the GI50 [1] was > 10 µM (inactive).

With `CSc1c(C(N)=S)c(N)nn1-c1ccccc1` the GI50 [1] was > 100 µM (inactive).

In the case of `CCN(CC)c1ncnc2c1ncn2CCNC(CO)(CO)CO`, the GI50 [1] is reported as > 100 µM (inactive).

With `CCOC(=O)c1c(C)n(-c2ccc(C)cc2)c2c1cc(O)c1[nH]c3c(c12)CCCC3` the GI50 [1] was 10.1 µM (inactive).

For `CN1C(=O)c2ccccc2OC12C=Cc1ccc(O)cc1O2` (stereo not given), the GI50 [1] was 30.8 µM (inactive).

In the case of `C=C1C(=O)OC2C[C@H](C)C3CC(=O)C(C)=C3CC12` (stereo not given in full), the GI50 [2] is reported as 7.38 µM (inactive), the GI50 [3] is reported as 15 µM (inactive) and the GI50 [4] is reported as 14.8 µM (inactive). For the same compound, the GI50 [5] was 10.6 µM (inactive), the GI50 [6] was 16 µM (inactive) and the GI50 [7] was 16.5 µM (inactive).

For `CCCCCCCC(=O)NS(=O)(=O)c1ccccc1`, the GI50 [1] was > 100 µM (inactive).

For `Oc1cccc2ccc(Br)nc12`, the GI50 [1] was > 100 µM (inactive).

For `O/N=N/c1ccccn1.OCC1OC2OC3C(CO)OC(OC4C(CO)OC(OC5C(CO)OC(OC6C(CO)OC(OC7C(CO)OC(OC1C(O)C2O)C(O)C7O)C(O)C6O)C(O)C5O)C(O)C4O)C(O)C3O` (stereo not given), the GI50 [1] was 30.8 µM (inactive).

With `COc1cccc2c1C(=O)c1c(O)c3c(c(O)c1C2=O)C[C@@](O)(C(=O)CO)CC3OC1CC(NCCOCC(OC(C)=O)OC(C)=O)C(O)C(C)O1` (stereo not given in full) the GI50 [2] was 0.01 µM (active), the GI50 [3] was < 0.01 µM (active) and the GI50 [8] was < 0.01 µM (active). For the same compound, the GI50 [4] was < 0.01 µM (active), the GI50 [5] was < 0.01 µM (active) and the GI50 [7] was < 0.01 µM (active).

For `CC(C)[C@@H]1ON1C(C)c1ccccc1` (stereo not given in full), the GI50 [1] was > 100 µM (inactive).
